# Measured values as given in patent US20230272012A1, “PEPTIDES AND METHODS OF USE” (REALTA LIFE SCIENCES, INC., priority 2020, published 2023).
# Entries after “also recorded” stand apart in the source; their conditions may differ. Bridge positions count the residues as written; N and C are the ends. Square brackets hold non-standard residues; d marks the D form. Ends that are not written are not given here. Peptide text beside a SMILES is read from it. S5 = C=CCCC[C@](C)(N)C(=O)O; Sar = CNCC(=O)O
# Columns and labels:
# [1] = test system: human neutrophils; experiment: NETosis assay (free DNA, PicoGreen); format: cell-based; conditions: peptide 2 mM; neutrophils stimulated with PMA and H2O2
# Procedure: Free DNA as a marker for NET formation was measured by PicoGreen as previously described. Briefly, 2.0×10^6 human neutrophils in 96-well plates were stimulated with 12 nM PMA and 0.05% H2O2 in RPMI with or without the indicated peptide variants (2 mM) for 2.5 hr in a 37° C. humified incubator supplemented with 5% CO2, allowing NETosis to occur. Neutrophils in RPMI alone served as a negative control. Fifty units of […] (Fisher) were added to each well to allow for digestion of released extracellular DNA for 10 min at 37° C. The preparation was then aliquoted into an adjacent well and mixed 1:1 with prepared PICO green reagent (Fisher). The fluorescence was then quantified on a BioTek microplate reader at excitation 485 nm/emission 528 nm.
# [2] = as described in U.S. Pat. No. 10,005,818; cited from earlier work
# [3] = target: T1, PD-1/PD-L1 interaction (Homo sapiens, UniProt Q15116+Q9NZQ7); experiment: PD-1/PD-L1 Blockade Bioassay (Promega); format: cell-based; conditions: increasing peptide concentrations
# T1 construct: host or cells: PD-1 effector cells; PD-L1 aAPC/CHO-K1 cells
# Procedure: PD-1 effector cells were incubated with PD1-L1 aAPC cells in the absence or presence of increasing concentrations of anti-PD-1 antibody (positive control) and select PIC1 peptides. Luminescence was detected in luminometer plate reader.
# To assess if PIC1 peptides could block PD-1 inhibitory activity in a cell-based assay, select peptides were screened in the PD-1/PD-L1 Blockade Bioassay (Promega). The PD-1/PD-L1 Blockade Bioassay is a biologically relevant MOA-based assay that can be used to measure the potency and stability of antibodies and other biologics designed to block the PD-1/PD-L1 interaction. This bioluminescent cell-based assay is used to measure the potency and stability of molecules targeting PD-1 and consists of two genetically engineered cell lines: aAPC/CHO-K1 Cells are CHO-K1 cells with an engineered cell surface protein designed to activate cognate TCRs in an antigen-independent manner. When the two cell types are co-cultured, the PD-1/PD-L1 interaction inhibits TCR signaling and NFAT-mediated luciferase activity. Addition of an inhibitory molecule that blocks either PD-1 or PD-L1 releases the inhibitory signal and results in TCR signaling and NFAT-mediated luciferase activity.
# [4] = test system: purified human Pan T-cells; experiment: T-cell exhaustion protocol (Dynabeads re-stimulation); format: cell-based; conditions: peptides 2 mg/ml at each stimulation; for IL-2 signal at stimulation 2: supernatant ELISA
# Procedure: Purified human pan-T-cells were subject to stimulation with Dynabeads every 48 hours over the period of 8 days with cells also receiving PIC1 peptides (2 mg/ml) at each stimulation. Cells not receiving Dynabeads were run in parallel to assess background levels of Caspase 3/7 signal. At the eighth day, cells were harvested and the levels of Caspase 3/7 determined by ELISA.
# Purified human pan-T-cells were subject to stimulation with Dynabeads every 48 hours over the period of 8 days with cells also receiving PIC1 peptides (2 mg/ml) at each stimulation. Cell supernatants were collected at each stimulation and levels of IL-2 and IFN-gamma assayed by ELISA.
# T-cell exhaustion is a form of T-cell dysfunction that occurs in cancer. It is defined by poor effector function, reduction in cytokine release (e.g., IL-2, TNF-alpha, IFN-gamma), sustained expression of inhibitory receptors (e.g., PD-1, LAG-3, CD244, CD160) with the progressive loss of effector function due to overstimulation. Exhaustion prevents optimal control of tumor growth. Exhausted T cells are prevalent in the tumor microenvironment (TME) and can lead to T-cell apoptosis. T-cell exhaustion is reversible, and pharmaceutical inhibition of T-cell exhaustion has been considered a promising strategy by many cancer researchers. To ascertain if PIC1 peptides could reverse T-cell exhaustion and increase T cell viability and effector function, a T-cell exhaustion protocol was developed. To induce T-cell exhaustion, purified human Pan T-cells were stimulated with T-Activator CD3/CD28 Dynabeads and cells are washed and re-stimulated every 48 hours. PIC1 peptides were added to the cells after each stimulation with Dynabeads. After three to four stimulations cells were harvested for readouts which consisted of assessing T-cell apoptosis by measuring Caspase 3/7 levels and production of cytokines IL-2 and IFN-gamma which is indicative of T-cell functionality. […] To further evaluate if PIC1 peptides could restore T-cell functionality in cells that have undergone the exhaustion protocol, the inventors next assessed production of cytokines IL-2 and IFN-gamma. Supernatants from the cells after each stimulation were collected and the cytokines measured by ELISA. […] The lower level of IFN-gamma signal compared to IL-2 was consistently seen in this assay.
# [5] = target: T2, CTLA-4 (Homo sapiens, UniProt P16410); experiment: CTLA-4 Blockade Bioassay (Promega); format: cell-based; design: host or cells: Jurkat T cells (CTLA-4 effector cells); aAPC/Raji cells; conditions: increasing concentrations
# T2 sequence (P16410 36-223): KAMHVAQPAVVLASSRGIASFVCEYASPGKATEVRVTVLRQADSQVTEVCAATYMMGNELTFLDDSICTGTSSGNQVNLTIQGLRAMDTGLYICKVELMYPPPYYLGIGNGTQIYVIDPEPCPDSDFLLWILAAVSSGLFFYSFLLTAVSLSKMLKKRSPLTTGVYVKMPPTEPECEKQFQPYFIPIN
# Procedure: CTLA-4 effector cells were incubated with aAPC/Raji Cells in the absence or presence of increasing concentrations of anti-CTLA-4 antibody (positive control), RLS-0127*, RLS-0130, RLS-0156, RLS-0170 and RLS-0174. Luminescence was detected in luminometer plate reader.
# To assess if PIC1 peptides could block CTLA-4 inhibitory activity in a cell-based assay, select peptides were screened in the CTLA-4 Blockade Bioassay (Promega). This bioluminescent cell-based assay is used to measure the potency and stability of molecules targeting CTLA-4 and consists of two genetically engineered cell lines: CTLA-4 effector cells: Jurkat T cells expressing human CTLA-4 and a luciferase reporter driven by a native promoter which responds to TCR/CD28 activation and aAPC/Raji Cells: Raji cells expressing an engineered cell surface protein designed to activate cognate TCRs in an antigen-independent manner and endogenously expressing CTLA-4 ligands CD80 and CD86. When the two cell types are co-cultured, CTLA-4 competes with CD28 for their shared ligands, CD80 and CD86 and thus inhibits CD28 pathway activation and promoter-mediated luminescence. Addition of a molecule that blocks the interaction of CTLA-4 with its ligands CD80 and CD86 results in promoter-mediated luminescence.
# [6] = test system: complement activity; experiment: Hemolytic assay of plasma after IV infusion into rats; format: in vivo, rat; conditions: IV in Wistar rats; early time points at the highest dose
# Procedure: (§1) Male Wistar rats with indwelling jugular catheters were administered PA-0117, -0127, -0130, and -0133 with groups of three animals receiving 20, 200 and 400 mg/kg of the compound as a single, bolus, IV infusion. A control group of rats received an infusion of saline IV. At various time points after infusion (0.5, 2, 5, 20, 60, 120, 240, 480, 1440 minute) an aliquot of blood was drawn and plasma isolated and frozen at −70° C. pending analysis. Animals were sacrificed after the terminal blood draw and a gross necropsy performed.
# (§2) PA-0117 could not be analyzed as no functional complement activity was obtained from the plasma samples. […] PA-0117 was analyzed in a C1q target acquisition assay (C1q binding assay) as described in Example 1 (FIG. 9). […] PA-0127 and -0130 levels were determined by coating the plate with the plasma samples and directly detecting the peptides by rabbit antibody raised against PA-0020 (peptide sequence […]; SEQ ID NO: 57) (FIGS. 10B and 11B). […] PA-0133 could not be detected by the available antibodies.
# [7] = format: in vivo, rat; conditions: IV in Wistar rats, 20, 200, 400 mg/kg; 0.5-1440 minute
# Procedure: as §1, §2
# PA-0117: The hemolysis assay results were not useable (few pre-bleeds had any activity, and only a few other random samples had any complement activity). The PK assay for PA-0117 was performed by sandwich ELISA (FIG. 9). PA-0127: The results of the hemolysis assay are discussed herein (see also FIG. 10A). […] PA-0130: The results of the hemolysis assay are discussed herein (see also FIG. 11A). […] PA-0133: The results of the hemolysis assay are discussed herein (FIG. 12).
# [8] = test system: human umbilical endothelial vein cells (HUVECs); experiment: LPS-induced (non-VEGF mediated) angiogenesis in HUVECs; format: cell-based; conditions: peptides 10 mg/ml, LPS 10 ug/ml, overnight
# Procedure: HUVEC cells were incubated with the indicated PIC1 peptides followed by LPS addition and plating onto extracellular matrix. After overnight incubation, evidence of angiogenesis was determined by fluorescence microscopy. Cells receiving LPS and not receiving LPS served as positive and negative controls for angiogenesis.
# While VEGF-plays a major role in angiogenesis in cancer, other non-VEGF factors can induce angiogenesis to promote tumor growth. Currently there are no drugs on the market to inhibit non-VEGF mediated angiogenesis. To assess whether the PIC1 peptides could inhibit non-VEGF mediated angiogenesis, the inventors developed a model of angiogenesis using human umbilical endothelial vein cells (HUVECs) in which addition of lipopolysaccharide (LPS) induces angiogenesis. HUVECs were first incubated with Cell Trace Violet dye, followed by addition of PIC1 peptides (10 mg/ml) for 1 hour at 37° C. and then treated with 10 ug/ml of LPS and placement on an extracellular matrix to promote angiogenesis. Cells were incubated overnight at 37° C. in a humidified CO2 incubator. Cells were then visualized for tube formation indicative of angiogenesis by fluorescence microscopy.
# [9] = ABO incompatibility hemolytic assay of complement activity (CH50-type); format: cell-based, human; conditions: peptide 0.8 mg/ml (~0.5 mM); read-out: decrease of ABO hemolysis compared to PA-I8Sar
# Procedure, shortened: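 Type AB human erythrocytes (5.0×10^7) incubated with 15% (final) type O human serum and 0.5 mM peptide in GVBS^++, 1 h at 37 °C. Hemolysis read as supernatant absorbance at 412 nm, expressed as percent of the serum-plus-RBC positive control; means of three independent experiments ±SEM.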
# T1 sequence (Q15116 25-288): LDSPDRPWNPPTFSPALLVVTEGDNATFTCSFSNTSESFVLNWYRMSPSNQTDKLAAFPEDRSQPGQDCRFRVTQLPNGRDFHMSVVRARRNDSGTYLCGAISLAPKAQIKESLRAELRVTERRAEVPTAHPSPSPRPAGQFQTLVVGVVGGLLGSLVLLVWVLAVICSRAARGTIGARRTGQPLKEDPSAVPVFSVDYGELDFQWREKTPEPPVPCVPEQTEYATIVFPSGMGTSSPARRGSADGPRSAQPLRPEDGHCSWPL
# T1 sequence (Q9NZQ7 19-290): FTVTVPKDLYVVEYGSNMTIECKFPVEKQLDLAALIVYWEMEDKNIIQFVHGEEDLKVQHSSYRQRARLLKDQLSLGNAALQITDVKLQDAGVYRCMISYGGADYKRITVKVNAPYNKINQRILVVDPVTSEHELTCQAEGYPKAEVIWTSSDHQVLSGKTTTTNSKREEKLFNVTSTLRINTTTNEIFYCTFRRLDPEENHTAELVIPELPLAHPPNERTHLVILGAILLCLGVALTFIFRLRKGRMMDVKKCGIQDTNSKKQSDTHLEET
Molecule,reduction of free DNA (marker of NETosis) [1],water solubility without PEGylation [2],IL-2 signal at stimulation 2 [4],inhibition of complement activity in the hemolytic assay of rat plasma [6],peptide level in plasma over time [7],further results
"IALILEP(Sar)CCQERAA (IALILEPXCCQERAA; sarcosine at position 8; MOD_RES (8)..(8) Sarcosine) [PA-0088, reference compound]",reduced the level of free DNA,water soluble without PEGylation,–,–,–,–
"CC[C@H](C)[C@H](N)C(=O)N[C@@H](C)C(=O)N[C@@H](CC(C)C)C(=O)N[C@H](C(=O)N[C@@H](CC(C)C)C(=O)N[C@@H](CCC(=O)O)C(=O)N1CCC[C@H]1C(=O)N(C)CC(=O)N[C@@H](CS)C(=O)N[C@@H](CS)C(=O)N[C@@H](CCC(N)=O)C(=O)N[C@H](CCC(=O)O)C(=O)N[C@@H](CCCNC(=N)N)C(=O)N[C@@H](C)C(=O)N[C@@H](C)C(=O)O)[C@@H](C)CC [PA-0130, IALILEP(Sar)CCQdERAA] (HELM PEPTIDE1{I.A.L.I.L.E.P.[Sar].C.C.Q.[dE].R.A.A}$$$$V2.0)",reduction in free DNA similar to that of the PA-I8Sar control; also recorded: ability to inhibit NET formation,–,showed an IL-2 signal at stimulation 2,inhibition of complement activity,increased binding was observed at early time points with diminished signal at later time points,inhibition of PD-1/PD-L1 inhibitory signaling (luminescence) [3]: did not show PD-1/PD-L1 inhibitory activity; Caspase 3/7 levels ([4]; eighth day): very low to undetectable levels of Caspase 3/7; inhibitory activity in CTLA-4 blockade bioassay (luminescence) ([5]; listed as RLS-0130): showed inhibitory activity; also recorded: able to inhibit CTLA-4 mediated cell signaling
IALILEP(Sar)S5CQES5AA (IALILEP[Sar][S5]CQE[S5]AA; staple 9-13) [PA-0118],–,–,did not,–,–,inhibition of LPS-induced angiogenesis (tube formation) [8]: no signs of angiogenesis; inhibition of PD-1/PD-L1 inhibitory signaling (luminescence) ([3]; listed as RLS-0118): increase in luminescence indicative of inhibition of PD-1/PD-L1 inhibitory signaling; also recorded: able to inhibit PD-1/PD-L1 mediated cell signaling; inhibitory activity in CTLA-4 blockade bioassay (luminescence) [5]: did not
IALILEPI(Sar)CQERAA (IALILEPIXCQERAA; sarcosine at position 9; MOD_RES (9)..(9) Sarcosine) [PA-0089],–,water soluble without PEGylation,–,–,–,–
"CC[C@H](C)[C@H](N)C(=O)N[C@@H](C)C(=O)N[C@@H](CC(C)C)C(=O)N[C@H](C(=O)N[C@@H](CC(C)C)C(=O)N[C@@H](CCC(=O)O)C(=O)N1CCC[C@H]1C(=O)N(C)CC(=O)N[C@H](CS)C(=O)N[C@@H](CS)C(=O)N[C@@H](CCC(N)=O)C(=O)N[C@@H](CCC(=O)O)C(=O)N[C@@H](CCCNC(=N)N)C(=O)N[C@@H](C)C(=O)N[C@@H](C)C(=O)O)[C@@H](C)CC [PA-0127, IALILEP(Sar)dCCQERAA] (HELM PEPTIDE1{I.A.L.I.L.E.P.[Sar].[dC].C.Q.E.R.A.A}$$$$V2.0)",did not reduce levels of free DNA; also recorded: did not show a reduction in free DNA,–,–,inhibition of complement activity,increased binding was observed at early time points with diminished signal at later time points,decrease in ABO hemolysis compared to reference peptide [9]: 20%
